18 compounds from patent US11124509B2, “Tri-substituted imidazoles for the inhibition of TGF beta and methods of treatment” (CLAVIUS PHARMACEUTICALS, LLC, priority 2017, dated 2021) can be followed below.

pIC50: −log10 of the molar value. Structures can show the parent of a compound that is named as a salt. Where two headings read alike, the source gives them in different places.

Assay [1] relates to TGF-beta 1 stimulated SBE-b1a HEK 293T cells. The assay is described as follows: GeneBLAzer beta-lactamase reporter, TGF-beta 1 stimulated SBE-b1a HEK 293T cell-based assay (ThermoFisher SelectScreen). The following applies: Homo sapiens, HEK-293T; TGF-beta 1 0.03 nM, 5 hours; inhibitor 10,000 nM to 0.316 nM; sigmoidal dose response curve fit; read-out: Cells (SBE_HEK293T) IC50. The procedure: (§1) Exemplified compounds were confirmed to inhibit ALK5 activity in enzyme and cellular assays in the following assay systems conducted by ThermoFisher in Madison, Wis. according to their commercially available protocols.
ThermoFisher SelectScreen™ Cell-Based Pathway Profiling Service GeneBLAzer Beta-Lactamase (b1a) Reporter Technology—TGF-Beta 1 Stimulated SBE-b1a HEK 293T Cell-Based Assay
SBE-b1a HEK 293T cells were thawed and re-suspended in Assay Media (OPTI-MEM, 0.5% dialyzed FBS, 0.1 mM NEAA, 1 mM Sodium Pyruvate, 100 U/mL/100 μg/mL Pen/Strep) to a concentration of 625,000 cells/mL. 32 μL of cell suspension (20,000 cells) was added to each well of a 384-well Poly-D-Lysine assay plate. Cells in Assay Media were incubated for 16-24 hours in the plate at 37° C./5% CO2 in a humidified incubator. 4 μL of a 10× serial dilution of ALK5 inhibitors (10x=100,000-3.16 nM) was added to appropriate wells of the plate and pre-incubated at 37° C./5% CO2 in a humidified incubator with cells for 30 minutes. Final concentration of inhibitor ranged from 10,000 nM to 0.316 nM. 4 μL of 10× TGF-beta 1 (final concentration of 0.03 nM) was added to wells containing the inhibitors. The plate was incubated for 5 hours at 37° C./5% CO2 in a humidified incubator. 8 μL of 1 μM Substrate Loading Solution was added to each well and the plate was incubated for 2 hours at room temperature before being read on a fluorescence plate reader. Percent inhibition was determined compared to DMSO only control (maximal TGF-beta 1 stimulation) and sigmoidal dose response curve fit yielded IC50 values as indicated in Table 2.

A further assay concerns the target TGFBR1 (ALK5) (Homo sapiens (Human), UniProt P36897). The assay is described as follows: LanthaScreen Eu Kinase Binding Assay TGFBR1 (ALK5) (ThermoFisher SelectScreen). The following applies: read-out: TβRI (ALK5) Binding IC50. The procedure: as §1
ThermoFisher SelectScreen™ Biochemical Kinase Profiling Service, LanthaScreen™Eu Kinase Binding Assay TGFBR1 (ALK5)
Exemplified compounds were screened in 1% DMSO (final concentration) by 3-fold serial dilutions from 10,000 nM to 0.316 nM to produce an IC50 or at single concentrations of 10,000, 1000 and 100 nM according to the following protocol. To low volume, white 384-well plates (Greiner Cat #784207) add 160 nL 100× compound in 100% DMSO, 3.84 uL kinase buffer (50 mM HEPES, pH 7.5, 0.01% BRIJ-35, 10 mM MgCl2, 1 mM EGTA), 8 uL 2× kinase/antibody mixture in kinase buffer (final ALK5 concentration of 5 nM; final Eu-anti-GST antibody concentration of 2 nM), 4 uL 4× Tracer #178 in kinase buffer (final concentration of 5 nM). Gently shake the plates for 30 seconds and incubate at room temperature for 1 hour before reading fluorescence on a plate reader. Percent inhibition was determined compared to DMSO only control (maximal ALK5 tracer binding) and sigmoidal dose response curve fit yielded IC50 values as indicated in Table 2.
Background: Time-resolved FRET reads energy transfer from a long-lived donor to a nearby acceptor.

Setting [2] is: compounds marked with an asterisk: evaluated at three concentrations, IC50 depicted as less than the lowest concentration producing >50% inhibition.
Setting [3] is: 3-fold serial dilutions 10,000 nM to 0.316 nM, ALK5 5 nM, Tracer #178 5 nM, sigmoidal dose response curve fit.

Sequence of TGFBR1 (ALK5) (P36897 34-503): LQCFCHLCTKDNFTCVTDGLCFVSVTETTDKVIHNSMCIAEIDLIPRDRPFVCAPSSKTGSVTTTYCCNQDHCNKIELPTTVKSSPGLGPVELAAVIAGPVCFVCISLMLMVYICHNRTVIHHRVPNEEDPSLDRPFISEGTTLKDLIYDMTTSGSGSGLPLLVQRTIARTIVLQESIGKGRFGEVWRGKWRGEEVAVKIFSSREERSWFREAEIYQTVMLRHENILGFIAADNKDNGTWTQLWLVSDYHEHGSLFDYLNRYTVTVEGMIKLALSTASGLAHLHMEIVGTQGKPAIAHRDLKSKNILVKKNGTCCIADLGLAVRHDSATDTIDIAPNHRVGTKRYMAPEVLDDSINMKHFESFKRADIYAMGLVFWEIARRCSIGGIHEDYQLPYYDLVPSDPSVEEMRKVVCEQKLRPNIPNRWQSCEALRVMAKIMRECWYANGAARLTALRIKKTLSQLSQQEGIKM

For the compound `CC(C)n1ccc(-c2nc(CNc3ccccc3F)[nH]c2-c2ccc3ncccc3c2)n1` [Compound 33, 2-fluoro-N-((4-(1-isopropyl-1H-pyrazol-3-yl)-5-(quinolin-6-yl)-1H-imidazol-2-yl)methyl)aniline hydrochloride], the pIC50 (usually the IC50 on a negative log10 scale, so that one unit is a factor of ten) was 5.04 in assay [1] and above 6.70 on TGFBR1 (ALK5) (setting [2]).

On to `CC(C)n1ccc(-c2nc(CNc3cccc(C#N)c3)[nH]c2-c2ccc3ncnn3c2)n1` [Compound 28], for which the pIC50 in assay [1] was 6.12; on TGFBR1 (ALK5) (setting [2]), above 7.00.

For `Cn1ccc(-c2nc(CNc3cccc(C#N)c3)[nH]c2-c2ccc3ncnn3c2)n1` [Compound 16, 3-(((5-([1,2,4]triazolo[1,5-a]pyridin-6-yl)-4-(1-methyl-1H-pyrazol-3-yl)-1H-imidazol-2-yl)methyl)amino)benzonitrile hydrochloride], the pIC50 in assay [1] was 5.45; at TGFBR1 (ALK5) (setting [2]), above 6.00.

Take `Cn1ccc(-c2nc(C(N)=O)[nH]c2-c2ccc3ncsc3c2)n1` [Compound 62, 5-(benzo[d]thiazol-6-yl)-4-(1-methyl-1H-pyrazol-3-yl)-1H-imidazole-2-carboxamide]: the pIC50 in assay [1] was 5.95; on TGFBR1 (ALK5) (setting [3]), 7.34.

Take `Fc1cccc(NCc2nc(-c3ccn(C(F)F)n3)c(-c3ccc4nccnc4c3)[nH]2)c1` [Compound 46]: the pIC50 in assay [1] was 7.94; on TGFBR1 (ALK5) (setting [3]), 8.25.

As to `CC(C)n1ccc(-c2nc(CNc3cccc(F)c3)[nH]c2-c2ccc3ncnn3c2)n1` [Compound 20, N-((5-([1,2,4]triazolo[1,5-a]pyridin-6-yl)-4-(1-isopropyl-1H-pyrazol-3-yl)-1H-imidazol-2-yl)methyl)-3-fluoroaniline hydrochloride], the pIC50 in assay [1] is 5.90; on TGFBR1 (ALK5) (setting [2]) it was above 7.00.

For the compound `CCNC(=O)c1ccc(-c2nc(-c3ccn(C)n3)c(-c3ccc4ncsc4c3)[nH]2)cc1` [Compound 65], the pIC50 is 6.18 in assay [1] and 7.34 at TGFBR1 (ALK5) (setting [3]).

As to `CN(C)C(=O)c1ccc(-c2nc(-c3ccn(C)n3)c(-c3ccc4ncsc4c3)[nH]2)cc1` [Compound 66], the pIC50 was 5.87 in assay [1] and 6.55 on TGFBR1 (ALK5) (setting [3]).

As to `Cn1ccc(-c2nc(-c3ccc(C(N)=O)cc3)[nH]c2-c2ccc3nccnc3c2)n1` [Compound 43], the pIC50 in assay [1] was 6.31; at TGFBR1 (ALK5) (setting [2]), above 7.00.

Turning to `Fc1cc(F)cc(NCc2nc(-c3ccn(C4CC4)n3)c(-c3ccc4nccnc4c3)[nH]2)c1` [Compound 68], the pIC50 was 7.96 in assay [1] and 8.92 on TGFBR1 (ALK5) (setting [3]).

For `CC(C)n1ccc(-c2nc(CNc3cc(F)ccc3F)[nH]c2-c2ccc3nccnc3c2)n1` [Compound 45], the pIC50 in assay [1] was 6.49; on TGFBR1 (ALK5) (setting [2]), above 7.00.

As for `Cc1cc(C(N)=O)cc(C)c1-c1nc(-c2ccn(C)n2)c(-c2ccc3ncsc3c2)[nH]1` [Compound 63], the pIC50 in assay [1] is 5.52; at TGFBR1 (ALK5) (setting [3]), 6.40.

As to `Cn1ccc(-c2nc(CNc3ccc(F)cc3)[nH]c2-c2ccc3ncnn3c2)n1` [Compound 8, N-((5-([1,2,4]triazolo[1,5-a]pyridin-6-yl)-4-(1-methyl-1H-pyrazol-3-yl)-1H-imidazol-2-yl)methyl)-4-fluoroaniline hydrochloride], the pIC50 in assay [1] is below 5.00; at TGFBR1 (ALK5) (setting [3]), 6.09.

`Cn1ccc(-c2nc[nH]c2-c2ccc3ncsc3c2)n1` [Compound 55]: the pIC50 in assay [1] is 6.88; at TGFBR1 (ALK5) (setting [3]), 8.33.

With `Cn1ccc(-c2nc(-c3ccc(C(N)=O)cc3)[nH]c2-c2ccc3ncsc3c2)n1` [Compound 37], the pIC50 was 7.27 in assay [1] and 8.25 at TGFBR1 (ALK5) (setting [3]).

Take `Cn1ccc(-c2nc(CNc3ccccc3)[nH]c2-c2ccc3ncnn3c2)n1` [Compound 4, N-((5-([1,2,4]triazolo[1,5-a]pyridin-6-yl)-4-(1-methyl-1H-pyrazol-3-yl)-1H-imidazol-2-yl)methyl)aniline hydrochloride]: the pIC50 is below 5.00 in assay [1] and 5.86 on TGFBR1 (ALK5) (setting [3]).

Consider `CC(C)n1ccc(-c2nc(CNc3cccc(C#N)c3)[nH]c2-c2ccc3ncc(C(N)=O)n3n2)n1` [Compound 38], for which the pIC50 in assay [1] is 5.50; on TGFBR1 (ALK5) (setting [2]), above 7.00.

On to `CC(C)n1ccc(-c2nc(CNc3cc(F)cc(C(N)=O)c3)[nH]c2-c2ccc3nccnc3c2)n1` [Compound 58], for which the results for the pIC50 (in assay [1]; at TGFBR1 (ALK5) (setting [3])) were 5.41 and 7.11, respectively.
